Test results published in US9630957B2, “2,3-butanediamide epoxide compound and preparation method and use thereof” (Institute of Pharmacology and Toxicology Academy of …, priority 2014, dated 2017).
Values after ≈ are worked out from the molar mass of the structure shown.

Legend:
[1] = test system: enterovirus EV71 (BrCr strain); assay: Activity screening for anti-enterovirus EV71: inhibition of cytopathic effect in Vero cells; format: cell-based; settings: for IC50: 100TCID50, Vero cells, CPE read when virus control reaches 4+, read-out: IC50 (half inhibitory concentration for enterovirus EV71); for SI (Selectivity Index = TC50/IC50): Vero cells
Protocol: Test item: Activity screening of the compounds for anti-enterovirus EV71
Test principle: Vero cells are used as viral host. The inhibition of the compound of the invention on the degree of cytopathic effect of Vero cells caused by enterovirus virus EV71 is determined.
1. Virus strain: enterovirus EV71 (BrCr, American Type Culture Collection, ATCC)
(§1) 2. Sample treatment: the compounds of the present invention are dissolved in DMSO or diluent to prepare stock solution which is stored at −20° C. The stock solution is formulated to suitable incipient concentration with culture solution immediately before use, and then 3-fold diluted with the culture solution, 8 degrees of dilution each.
3. Positive control drug: Pirodavir (LGM Pharma), which is a broad-spectrum anti-viral inhibitor.
(§2) 4. Test Method: Vero cells are seeded into a 96-well culture plate, at 5% CO2, and cultured at 37° C. for 16 hours. The Vero cells are added with different dilutions of drugs, and the degree of cytopathic effect (CPE) in each group is observed. The half toxic concentration (TC50) of each sample for Vero cells is calculated. Vero cells are added with 100TCID50 enterovirus EV71 respectively, and the virus solution is discarded after adsorption at 37° C. for 1 hour, and then drugs with various degrees of dilution are added respectively. Virus control and cell control are set and incubated at 37° C. The degree of cytopathic effect (CPE) in each group is observed when the degree of cytopathic effect (CPE) of virus control group reaches 4+. The half inhibitory concentration (IC50) of each sample for enterovirus EV71 are calculated. Selectivity Index (SI) is calculated according to the following equation: SI=TC50/IC50.

[2] = test system: Vero cells; assay: Cytotoxicity of the compounds for Vero cells (CPE observation, TC50); format: cell-based; settings: no virus
Protocol: as §1, §2

Structure (SMILES) | melting point | IC50 [1] | TC50 (half toxic concentration for Vero cells) [2] | SI (Selectivity Index = TC50/IC50) [1]
O=C(Nc1nc2ccccc2s1)c1ccc(N(Cc2ccc(F)cc2)C(=O)[C@H]2O[C@@H]2C(=O)Nc2ccc(F)c(F)c2)cc1 [Compound 22, (2S,3S)—N^2-(4-(benzo[d]thiazol-2-ylcarbamoyl)phenyl)-N^3-(3,4-difluorophenyl)-N^2-(4-fluorobenzyl)-2,3-epoxybutanediamide] | 219.2 to 219.7 °C | > 0.27 µg/mL | 1.19 µg/mL | 
O=C(Nc1nc2ccccc2s1)c1ccc(N(Cc2ccc(F)cc2)C(=O)[C@H]2O[C@@H]2C(=O)Nc2cccc(Cl)c2)cc1 [Compound 23, (2S,3S)—N^2-(4-(benzo[d]thiazol-2-ylcarbamoyl)phenyl)-N^3-(3-chlorophenyl)-N^2-(4-fluorobenzyl)-2,3-epoxybutanediamide] | 209.8 to 210.3 °C | > 0.82 µg/mL | 1.43 µg/mL | 
O=C(Nc1nc2ccccc2s1)c1ccc(N(Cc2ccc(F)cc2)C(=O)[C@H]2O[C@@H]2C(=O)Nc2ccc([N+](=O)[O-])cc2)cc1 [Compound 24, (2S,3S)—N^2-(4-(benzo[d]thiazol-2-ylcarbamoyl)phenyl)-N^3-(4-nitrophenyl)-N^2-(4-fluorobenzyl)-2,3-epoxybutanediamide] | 203.5 to 204.2 °C | > 0.82 µg/mL | 1.43 µg/mL | 
O=C(Nc1nc2ccccc2s1)c1ccc(N(Cc2ccc(F)cc2)C(=O)[C@H]2O[C@@H]2C(=O)Nc2cccc(Cl)c2Cl)cc1 [Compound 25, (2S,3S)—N^2-(4-(benzo[d]thiazol-2-ylcarbamoyl)phenyl)-N^3-(2,3-dichlorophenyl)-N^2-(4-fluorobenzyl)-2,3-epoxybutanediamide] | 210.2 to 211.1 °C | > 0.27 µg/mL | 0.82 µg/mL | 
O=C(Nc1nc2ccccc2s1)c1ccc(N(Cc2ccc(F)cc2)C(=O)[C@H]2O[C@@H]2C(=O)Nc2ccc(Cl)cc2Cl)cc1 [Compound 26, (2S,3S)—N^2-(4-(benzo[d]thiazol-2-ylcarbamoyl)phenyl)-N^3-(2,4-dichlorophenyl)-N^2-(4-fluorobenzyl)-2,3-epoxybutanediamide] | 206.7 to 207.5 °C | > 0.82 µg/mL | 1.43 µg/mL | 
O=C(Nc1nc2ccccc2s1)c1ccc(N(Cc2ccc(F)cc2)C(=O)[C@H]2O[C@@H]2C(=O)Nc2ccccc2Br)cc1 [Compound 27, (2S,3S)—N^2-(4-(benzo[d]thiazol-2-ylcarbamoyl)phenyl)-N^3-(2-bromophenyl)-N^2-(4-fluorobenzyl)-2,3-epoxybutanediamide] | 179.2 to 180.1 °C | > 0.27 µg/mL | 0.82 µg/mL | 
Cc1c(Cl)cccc1NC(=O)[C@H]1O[C@@H]1C(=O)N(Cc1ccc(F)cc1)c1ccc(C(=O)Nc2nc3ccccc3s2)cc1 [Compound 28, (2S,3S)—N^2-(4-(benzo[d]thiazol-2-ylcarbamoyl)phenyl)-N^3-(2-methyl-3-chlorophenyl)-N^2-(4-fluorobenzyl)-2,3-epoxybutanediamide] | 210.3 to 211.1 °C | > 0.27 µg/mL | 0.82 µg/mL | 
O=C(Nc1nc2ccccc2s1)c1ccc(N(Cc2ccc(F)cc2)C(=O)[C@H]2O[C@@H]2C(=O)Nc2ccc(F)cc2)cc1 [Compound 29, (2S,3S)—N^2-(4-(benzo[d]thiazol-2-ylcarbamoyl)phenyl)-N^3-(4-fluorophenyl)-N^2-(4-fluorobenzyl)-2,3-epoxybutanediamide] | 199.7 to 200.5 °C | > 0.82 µg/mL | 1.43 µg/mL | 
O=C(Nc1nc2ccccc2s1)c1ccc(N(Cc2ccc(F)cc2)C(=O)[C@H]2O[C@@H]2C(=O)Nc2cccc(F)c2)cc1 [Compound 30, (2S,3S)—N^2-(4-(benzo[d]thiazol-2-ylcarbamoyl)phenyl)-N^3-(3-fluorophenyl)-N^2-(4-fluorobenzyl)-2,3-epoxybutanediamide] | 202.4 to 203.1 °C | 0.36 µg/mL (≈ 0.616 µM) | 1.43 µg/mL | 3.97
O=C(Nc1nc2ccccc2s1)c1ccc(N(Cc2ccc(F)cc2)C(=O)[C@H]2O[C@@H]2C(=O)Nc2ccc(Cl)c(Cl)c2)cc1 [Compound 31, (2S,3S)—N^2-(4-(benzo[d]thiazol-2-ylcarbamoyl)phenyl)-N^3-(3,4-dichlorophenyl)-N^2-(4-fluorobenzyl)-2,3-epoxybutanediamide] | 218.2 to 219.1 °C | > 0.82 µg/mL | 1.43 µg/mL | 
O=C(Nc1nc2ccccc2s1)c1ccc(N(Cc2ccc(F)cc2)C(=O)[C@H]2O[C@@H]2C(=O)Nc2nccs2)cc1 [Compound 32, (2S,3S)—N^2-(4-(benzo[d]thiazol-2-ylcarbamoyl)phenyl)-N^2-(4-fluorobenzyl)-N^3-(2-thiazolyl)-2,3-epoxybutanediamide] | 216.4 to 217.2 °C | > 0.27 µg/mL | 1.19 µg/mL | 
CCOC(=O)c1csc(NC(=O)[C@H]2O[C@@H]2C(=O)N(Cc2ccc(F)cc2)c2ccc(C(=O)Nc3nc4ccccc4s3)cc2)n1 [Compound 33, (2S,3S)—N^2-(4-(benzo[d]thiazol-2-ylcarbamoyl)phenyl)-N^2-(4-fluorobenzyl)-N^3-(4-ethoxycarbonylthiazol-2-yl)-2,3-epoxybutanediamide] | 220.5 to 221.6 °C | > 0.27 µg/mL | 1.19 µg/mL | 
COC(=O)c1csc(NC(=O)[C@H]2O[C@@H]2C(=O)N(Cc2ccc(F)cc2)c2ccc(C(=O)Nc3nc4ccccc4s3)cc2)n1 [Compound 34, (2S,3S)—N^2-(4-(benzo[d]thiazol-2-ylcarbamoyl)phenyl)-N^2-(4-fluorobenzyl)-N^3-(4-methoxycarbonylthiazol-2-yl)-2,3-epoxybutanediamide] | 196.3 to 197.1 °C | > 0.82 µg/mL | 1.43 µg/mL | 
CCOC(=O)c1cnc(NC(=O)[C@H]2O[C@@H]2C(=O)N(Cc2ccc(F)cc2)c2ccc(C(=O)Nc3nc4ccccc4s3)cc2)s1 [Compound 35, (2S,3S)—N^2-(4-(benzo[d]thiazol-2-ylcarbamoyl)phenyl)-N^2-(4-fluorobenzyl)-N^3-(5-ethoxycarbonylthiazol-2-yl)-2,3-epoxybutanediamide] | 218.6 to 219.2 °C | > 2.47 µg/mL | 4.28 µg/mL | 
COC(=O)c1cnc(NC(=O)[C@H]2O[C@@H]2C(=O)N(Cc2ccc(F)cc2)c2ccc(C(=O)Nc3nc4ccccc4s3)cc2)s1 [Compound 36, (2S,3S)—N^2-(4-(benzo[d]thiazol-2-ylcarbamoyl)phenyl)-N^2-(4-fluorobenzyl)-N^3-(5-methoxycarbonylthiazol-2-yl)-2,3-epoxybutanediamide] | 219.8 to 220.2 °C | > 0.82 µg/mL | 3.56 µg/mL | 
COc1ccccc1NC(=O)[C@H]1O[C@@H]1C(=O)N(Cc1ccc(F)cc1)c1ccc(C(=O)Nc2nc3ccccc3s2)cc1 [Compound 37, (2S,3S)—N^2-(4-(benzo[d]thiazol-2-ylcarbamoyl)phenyl)-N^3-(2-methoxyphenyl)-N^2-(4-fluorobenzyl)-2,3-epoxybutanediamide] | 189.2 to 190 °C | > 0.27 µg/mL | 0.82 µg/mL | 
O=C(Nc1nc2ccccc2s1)c1ccc(N(Cc2ccccc2)C(=O)[C@H]2O[C@@H]2C(=O)O)cc1 [Compound 38, (2S,3S)-3-((4-(benzo[d]thiazol-2-ylcarbamoyl)phenyl)(benzyl)carbamoyl)oxirane-2-carboxylic acid] | 198.6 to 199.3 °C | > 22.2 µg/mL | 115.47 µg/mL | 
COc1ccc(NC(=O)[C@H]2O[C@@H]2C(=O)N(Cc2ccccc2)c2ccc(C(=O)Nc3nc4ccccc4s3)cc2)cc1OC [Compound 39, (2S,3S)—N^2-(4-(benzo[d]thiazol-2-ylcarbamoyl)phenyl)-N^2-benzyl-N^3-(3,4-dimethoxyphenyl)-2,3-epoxybutanediamide] | 224.5 to 226 °C | 4.28 µg/mL (≈ 7.03 µM) | 32.05 µg/mL | 7.49
O=C(Nc1nc2ccccc2s1)c1ccc(N(Cc2ccccc2)C(=O)[C@H]2O[C@@H]2C(=O)Nc2ccc(Cl)c(Cl)c2)cc1 [Compound 40, (2S,3S)—N^2-(4-(benzo[d]thiazol-2-ylcarbamoyl)phenyl)-N^2-benzyl-N^3-(3,4-dichlorophenyl)-2,3-epoxybutanediamide] | 217.6 to 218.3 °C | > 0.82 µg/mL | 1.43 µg/mL | 
COC(=O)c1csc(NC(=O)[C@H]2O[C@@H]2C(=O)N(Cc2ccccc2)c2ccc(C(=O)Nc3nc4ccccc4s3)cc2)n1 [Compound 41, (2S,3S)—N^2-(4-(benzo[d]thiazol-2-ylcarbamoyl)phenyl)-N^2-benzyl-N^3-(4-methoxycarbonylthiazol-2-yl)-2,3-epoxybutanediamide] | 223.5 to 224.3 °C | > 0.82 µg/mL | 1.43 µg/mL | 
